Measured values reported in patent publication US8293734B2, “Nitroimidazooxazine and nitroimidazooxazole analogues and their uses” (priority 2009, dated 2012).
In brackets after ≈: the same amount, converted by molar mass. Like-named read-outs stand apart in the source and are kept apart here.

Legend:
[1] = test system: replicating Mycobacterium tuberculosis; assay: MABA microplate Alamar blue assay, MIC (aerobic); format: cell-based; settings: 192 h
[2] = test system: Trypanosoma cruzi amastigotes (Tulahuen C2C4 strain); assay: Trypanosoma cruzi assay in infected L-6 cells; format: cell-based; settings: L6, 96 h incubation, read-out: IC50 T. cruzi
Procedure: (§1) (c) Antiprotozoal screening. Compounds were evaluated for their activities against both Trypanosoma cruzi amastigotes and Leishmania donovani amastigotes (free or encapsulated in macrophages), according to the following protocols:
(i) Trypanosoma cruzi assay. L-6 cells (2×10^3) in medium (100 μL of RPMI 1640 supplemented with 2 mM L-glutamine plus 10% heat inactivated fetal calf serum) were seeded in 96-well microtitre plates (Costar™) and incubated at 37° C. (5% CO2) for 1d. A suspension (50 μL) of Trypanosoma cruzi trypomastigotes (5×10^3 of Tulahuen C2C4 strain, containing the β-galactosidase gene) was added, and the cells were incubated at 37° C. (5% CO2) for a further 48 h to establish the infection. The medium was removed and replaced by fresh medium and the infected cells were then incubated at 37° C. (5% CO2) for 96 h in either medium alone or in the presence of serial (3-fold) dilutions of test compounds (initially prepared as 10 mg/mL stock solutions in DMSO and diluted into medium). Benznidazole was employed as a standard in each assay. Following incubation, chlorophenol red glycoside (100 mM) in 0.1% Nonidet P40/PBS (50 μL) was added, and (after 6 h) the absorbance at 540 nm was measured and used to calculate the IC50 values.

[3] = test system: Axenically grown L. donovani amastigotes (MHOM-ET-67/L82); assay: Axenic Leishmania donovani assay; format: cell-based; settings: 70 h incubation, read-out: IC50 L. donovani axen
Procedure: as §1
(ii) Axenic Leishmania donovani assay. Axenically grown L. donovani amastigotes (MHOM-ET-67/L82) from a healthy culture in log phase were seeded at a density of 1×10^6/mL medium (SM, pH 5.4 plus 10% heat inactivated fetal calf serum) in 96-well microtitre plates (Costar™) and incubated at 37° C. (5% CO2) for 70 h in either medium alone or in the presence of serial (3-fold) dilutions of test compounds (initially prepared as 10 mg/mL stock solutions in DMSO and diluted into medium). Miltefosin was employed as a standard in each assay. After incubation, Resazurin fluorescent dye was added to each well, and incubation was continued for an additional 2 h. The IC50 values were determined from measurements of the fluorescence data.

[4] = test system: VERO cells (CCL-81); assay: Mammalian cell cytotoxicity assay (tetrazolium dye); format: cell-based; settings: Chlorocebus sabaeus, read-out: IC50 VERO
Procedure: (b) Mammalian cell cytotoxicity assay. This was assessed against VERO cells (CCL-81, American Type Culture Collection) in a 72 h exposure, using a tetrazolium dye assay (Falzari et al., 2005).

[5] = test system: M. tuberculosis bacteria in the non-replicating state; assay: LORA low-oxygen-recovery assay, MIC (anaerobic); format: cell-based; settings: Mycobacterium tuberculosis, 264 h; 11 day luminescence-based low-oxygen-recovery assay
[6] = test system: L. donovani amastigotes (MHOM-ET-67/L82) in mouse macrophages; assay: Leishmania donovani infected macrophage assay; format: cell-based; settings: 96 h incubation, read-out: IC50 L. donovani macro
Procedure: as §1
(iii) Leishmania donovani infected macrophage assay. Freshly harvested mouse macrophages in medium (RPMI 1640 plus 10% heat inactivated fetal calf serum) were incubated at 37° C. (5% CO2) for 24 h and then infected (1:3 macrophages to amastigotes) with an axenic L. donovani amastigote culture (MHOM-ET-67/L82) in medium (SM, pH 5.4 plus 10% heat inactivated fetal calf serum). The infected macrophages were seeded at a density of 1.2×10^6/mL (by diluting in RPMI+10% FCS) in 16-well slides (Lab-tek™) and incubated at 37° C. (5% CO2) for 24 h. The medium was removed and replaced by fresh medium (RPMI 1640+10% FCS), and this was repeated following mixing. The infected macrophages were then incubated at 37° C. (5% CO2) for 96 h in either medium alone or in the presence of serial (3-fold) dilutions of test compounds (initially prepared as 10 mg/mL stock solutions in DMSO and diluted into medium). Miltefosin was employed as a standard in each assay. […], the slides were fixed (5 min in 100% MeOH) and stained (10% Giemsa, 10 min). The ratio of infected to uninfected macrophages was determined by microscopic examination, and the IC50 values were then calculated by linear regression analysis.

[7] = test system: M. tuberculosis Erdman; assay: In vivo mouse acute TB infection assay; design: species or system BALB/c mice; settings: for In vivo efficacy vs PA-824: 100 mg/kg orally daily 5 days a week for 3 weeks, ratio of average lung CFU reduction to that of PA-824
[8] = Stability to human liver microsomes; format: in vitro ADME; settings: 1 μM compound, 60 min, 37° C., 0.5 mg/mL protein
Procedure: (a) Stability of the compounds to human and mouse microsomes. Test compounds (1 μM) were incubated at 37° C. with pooled human or CD-1 mouse liver microsome preparations (0.5 mg/mL final protein concentration) and an NADPH regenerating system (MgCl2, 3.3 mM; G6P, 3.3 mM; G6PD, 0.4 U/mL; NADP+, 1.3 mM) in phosphate buffer (75 mM, pH 7.4), with a final volume of 200 μL. The compounds were dissolved in DMSO such that the final DMSO concentration was 0.5%. Reactions were stopped at 0 and 60 min by the addition of MeCN (100 μL) containing 0.2 μM metoprolol as an internal standard. Samples were diluted 10× and centrifuged prior to analysis by LC-MS/MS using electrospray ionization and SRM monitoring using a gradient LC method. LC peak areas were integrated and expressed as analyte/IS peak area ratios (PAR), and a mean value for each time point was calculated from the duplicates. The percent remaining value was calculated as: % remaining=100×(Mean PART60/Mean PART0).

SMILES	MIC [1] [µM]	IC50 [2] [µg/mL]	IC50 [3] [µg/mL]	melting point [°C]	IC50 ([4]; 72 h exposure) [µM]	MIC [5] [µM]	IC50 [6] [µg/mL]	In vivo efficacy vs PA-824 [7]	Microsomes (% remaining) Human [8] [%]	log reductions in CFU ([7]; lungs, vs vehicle alone-treated mice, day 31, 'up to')	IC50 ([4]; 72 h) [µM]
CC1(COCc2ccc(OCc3ccccc3)cc2)Cn2cc([N+](=O)[O-])nc2O1 (stereo not drawn) [Compound 26, 2-({[4-(benzyloxy)benzyl]oxy}methyl)-2-methyl-6-nitro-2,3-dihydroimidazo[2,1-b][1,3]oxazole]	0.3 (≈ 0.119 µg/mL)	0.34 (≈ 0.86 µM)	0.013 (≈ 0.0329 µM)	130 to 131	> 128	50 (≈ 19.8 µg/mL)	0.36 (≈ 0.91 µM)				
CC1(COCc2ccc(OC(F)(F)F)cc2)Cn2cc([N+](=O)[O-])nc2O1 (stereo not drawn) [Compound 25, 2-methyl-6-nitro-2-({[4-(trifluoromethoxy)benzyl]oxy}methyl)-2,3-dihydroimidazo[2,1-b][1,3]oxazole]		0.24 (≈ 0.643 µM)	0.029 (≈ 0.0777 µM)	110 to 111	> 128		0.22 (≈ 0.589 µM)	0.025			
COc1ccc(-c2ccc(OCC3(C)Cn4cc([N+](=O)[O-])nc4O3)cc2)cn1 (stereo not drawn) [Compound 8, 2-{[4-(6-methoxy-3-pyridinyl)phenoxy]methyl}-2-methyl-6-nitro-2,3-dihydroimidazo[2,1-b][1,3]oxazole]	0.04 (≈ 0.0153 µg/mL)	4.1 (≈ 10.7 µM)	0.017 (≈ 0.0445 µM)	217 to 219	> 128	14 (≈ 5.35 µg/mL)	0.38 (≈ 0.994 µM)				
CC1(COc2ccc(OCc3ccccc3)cc2)Cn2cc([N+](=O)[O-])nc2O1 (stereo not drawn) [Compound 7, 2-{[4-(benzyloxy)phenoxy]methyl}-2-methyl-6-nitro-2,3-dihydroimidazo[2,1-b][1,3]oxazole]	0.53 (≈ 0.202 µg/mL)	3.2 (≈ 8.39 µM)	0.016 (≈ 0.042 µM)	162 to 165		24 (≈ 9.15 µg/mL)	0.4 (≈ 1.05 µM)				
O=[N+]([O-])c1cn2c(n1)OCC(COCc1cccc(-c3ccc(OC(F)(F)F)cc3)c1)C2 (stereo not drawn) [Compound 74, 2-nitro-6-({[4′-(trifluoromethoxy)[1,1′-biphenyl]-3-yl]methoxy}methyl)-6,7-dihydro-5H-imidazo[2,1-b][1,3]oxazine]	0.22 (≈ 0.0989 µg/mL)	0.94 (≈ 2.09 µM)	0.16 (≈ 0.356 µM)	78 to 80	> 128	2.9 (≈ 1.3 µg/mL)	0.54 (≈ 1.2 µM)				
CC1(COCc2ccc(OCc3ccccc3)cc2)CCn2cc([N+](=O)[O-])nc2O1 (stereo not drawn) [Compound 54, 7-({[4-(benzyloxy)benzyl]oxy}methyl)-7-methyl-2-nitro-6,7-dihydro-5H-imidazo[2,1-b][1,3]oxazine]	0.2 (≈ 0.0819 µg/mL)	0.74 (≈ 1.81 µM)	0.047 (≈ 0.115 µM)	109 to 111	> 128	1.4 (≈ 0.573 µg/mL)	0.095 (≈ 0.232 µM)				
O=[N+]([O-])c1cn2c(n1)OC(COCc1cccc(OC(F)(F)F)c1)CC2 (stereo not drawn) [Compound 47, 2-nitro-7-({[3-(trifluoromethoxy)benzyl]oxy}methyl)-6,7-dihydro-5H-imidazo[2,1-b][1,3]oxazine]	3.8 (≈ 1.42 µg/mL)	1.1 (≈ 2.95 µM)	0.041 (≈ 0.11 µM)	100 to 112		15 (≈ 5.6 µg/mL)	0.084 (≈ 0.225 µM)				
O=[N+]([O-])c1cn2c(n1)OC(COCc1cccc(-c3ccc(OC(F)(F)F)cc3)c1)CC2 (stereo not drawn) [Compound 50, 2-nitro-7-({[4′-(trifluoromethoxy)[1,1′-biphenyl]-3-yl]methoxy}methyl)-6,7-dihydro-5H-imidazo[2,1-b][1,3]oxazine]	0.24 (≈ 0.108 µg/mL)	6.3 (≈ 14 µM)	0.041 (≈ 0.0912 µM)	117 to 119	> 128	5.1 (≈ 2.29 µg/mL)	0.15 (≈ 0.334 µM)				
CC1(COc2ccc(-c3ccc(OC(F)(F)F)cc3)cc2)Cn2cc([N+](=O)[O-])nc2O1 (stereo not drawn) [Compound 12, 2-methyl-6-nitro-2-({[4′-(trifluoromethoxy)[1,1′-biphenyl]-4-yl]oxy}methyl)-2,3-dihydroimidazo[2,1-b][1,3]oxazole]		9.4 (≈ 21.6 µM)	0.016 (≈ 0.0368 µM)	209 to 211	> 128		0.74 (≈ 1.7 µM)	112			
O=[N+]([O-])c1cn2c(n1)OCC(COCc1cccc(OC(F)(F)F)c1)C2 (stereo not drawn) [Compound 71, 2-nitro-6-({[3-(trifluoromethoxy)benzyl]oxy}methyl)-6,7-dihydro-5H-imidazo[2,1-b][1,3]oxazine]	0.33 (≈ 0.123 µg/mL)	0.56 (≈ 1.5 µM)	0.2 (≈ 0.536 µM)	60 to 61	> 128	15 (≈ 5.6 µg/mL)	0.65 (≈ 1.74 µM)				
CC1(COc2ccc(-c3ccc(C#N)cc3)cc2)Cn2cc([N+](=O)[O-])nc2O1 (stereo not drawn) [Compound 9, 4′-[(2-methyl-6-nitro-2,3-dihydroimidazo[2,1-b][1,3]oxazol-2-yl)methoxy][1,1′-biphenyl]-4-carbonitrile]	0.04 (≈ 0.0151 µg/mL)	1.2 (≈ 3.19 µM)	0.016 (≈ 0.0425 µM)	180 to 181	> 128	3.7 (≈ 1.39 µg/mL)	0.2 (≈ 0.531 µM)				
O=[N+]([O-])c1cn2c(n1)OC[C@@H](OCc1ccc(OC(F)(F)F)cc1)C2 [PA-824, reference compound]								1.00	82	2.5-3 log	
O=[N+]([O-])c1cn2c(n1)OCC(COCc1ccc(-c3ccc(OC(F)(F)F)cc3)cc1)C2 (stereo not drawn) [Compound 75, 2-nitro-6-({[4′-(trifluoromethoxy) [1,1′-biphenyl]-4-yl]methoxy}methyl)-6,7-dihydro-5H-imidazo[2,1-b][1,3]oxazine]	0.3 (≈ 0.135 µg/mL)	0.47 (≈ 1.05 µM)	0.2 (≈ 0.445 µM)	135 to 138		> 128	0.67 (≈ 1.49 µM)				> 128
O=[N+]([O-])c1cn2c(n1)OC(COCc1ccc(-c3ccc(OC(F)(F)F)cc3)cc1)CC2 (stereo not drawn) [Compound 51, 2-nitro-7-({[4′-(trifluoromethoxy)[1,1′-biphenyl]-4-yl]methoxy}methyl)-6,7-dihydro-5H-imidazo[2,1-b][1,3]oxazine]	0.055 (≈ 0.0247 µg/mL)	15 (≈ 33.4 µM)	0.046 (≈ 0.102 µM)	159 to 161	> 128	1.5 (≈ 0.674 µg/mL)	0.17 (≈ 0.378 µM)				
